Tested on: SW620
Assay: cell viability relative to vehicle (resazurin, 96 h); higher = more viable
Method: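 SW620 WT or MTHFD2-/- cells were treated for 96 h with a compound dilution series (log10 M) in RPMI with normal or dialysed FBS. Viability was read by resazurin and is given as % of vehicle.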

Cc1c(N2CCN(C)[C@@H](C)C2)ccc2c3c(c(=O)oc12)CN(C(=O)c1ccc(NS(C)(=O)=O)c(OC(F)(F)F)c1)CC3
Details	cell viability [%]
log10 compound concentration (M): -5, supplement / serum: 50μM Hypoxanthine, base medium: RPMI + dialysed FBS	59.7
log10 compound concentration (M): -5, supplement / serum: 50μM Thymidine + 50μM Hypoxanthine, base medium: RPMI + dialysed FBS	79
log10 compound concentration (M): -5, supplement / serum: 50μMThymidine, base medium: RPMI + dialysed FBS	13
log10 compound concentration (M): -5, supplement / serum: No metabolite, base medium: RPMI + dialysed FBS	11
log10 compound concentration (M): -5, supplement / serum: RPMI + Dialyzed FBS + 50μM Hypoxanthine, base medium: RPMI-1640	59.7
log10 compound concentration (M): -5, supplement / serum: RPMI + Dialyzed FBS, base medium: RPMI-1640	11
log10 compound concentration (M): -5, supplement / serum: RPMI + Normal FBS, base medium: RPMI-1640	78.9
log10 compound concentration (M): -5.47712, supplement / serum: 50μM Hypoxanthine, base medium: RPMI + dialysed FBS	73.8
log10 compound concentration (M): -5.47712, supplement / serum: 50μM Thymidine + 50μM Hypoxanthine, base medium: RPMI + dialysed FBS	87.3
log10 compound concentration (M): -5.47712, supplement / serum: 50μMThymidine, base medium: RPMI + dialysed FBS	16.4
log10 compound concentration (M): -5.47712, supplement / serum: No metabolite, base medium: RPMI + dialysed FBS	16.8
log10 compound concentration (M): -5.47712, supplement / serum: RPMI + Dialyzed FBS + 50μM Hypoxanthine, base medium: RPMI-1640	73.8
log10 compound concentration (M): -5.47712, supplement / serum: RPMI + Dialyzed FBS, base medium: RPMI-1640	16.8
log10 compound concentration (M): -5.47712, supplement / serum: RPMI + Normal FBS, base medium: RPMI-1640	59.76
log10 compound concentration (M): -5.95424, supplement / serum: 50μM Hypoxanthine, base medium: RPMI + dialysed FBS	79.2
log10 compound concentration (M): -5.95424, supplement / serum: 50μM Thymidine + 50μM Hypoxanthine, base medium: RPMI + dialysed FBS	82.2
log10 compound concentration (M): -5.95424, supplement / serum: 50μMThymidine, base medium: RPMI + dialysed FBS	37.8
log10 compound concentration (M): -5.95424, supplement / serum: No metabolite, base medium: RPMI + dialysed FBS	37.9
log10 compound concentration (M): -5.95424, supplement / serum: RPMI + Dialyzed FBS + 50μM Hypoxanthine, base medium: RPMI-1640	79.2
log10 compound concentration (M): -5.95424, supplement / serum: RPMI + Dialyzed FBS, base medium: RPMI-1640	37.9
log10 compound concentration (M): -5.95424, supplement / serum: RPMI + Normal FBS, base medium: RPMI-1640	66.4
log10 compound concentration (M): -6.43136, supplement / serum: 50μM Hypoxanthine, base medium: RPMI + dialysed FBS	78.9
log10 compound concentration (M): -6.43136, supplement / serum: 50μM Thymidine + 50μM Hypoxanthine, base medium: RPMI + dialysed FBS	89.1
log10 compound concentration (M): -6.43136, supplement / serum: 50μMThymidine, base medium: RPMI + dialysed FBS	64.5
log10 compound concentration (M): -6.43136, supplement / serum: No metabolite, base medium: RPMI + dialysed FBS	67.9
log10 compound concentration (M): -6.43136, supplement / serum: RPMI + Dialyzed FBS + 50μM Hypoxanthine, base medium: RPMI-1640	78.9
log10 compound concentration (M): -6.43136, supplement / serum: RPMI + Dialyzed FBS, base medium: RPMI-1640	67.9
log10 compound concentration (M): -6.43136, supplement / serum: RPMI + Normal FBS, base medium: RPMI-1640	74.7
log10 compound concentration (M): -6.90849, supplement / serum: 50μM Hypoxanthine, base medium: RPMI + dialysed FBS	85.8
log10 compound concentration (M): -6.90849, supplement / serum: 50μM Thymidine + 50μM Hypoxanthine, base medium: RPMI + dialysed FBS	72.8
log10 compound concentration (M): -6.90849, supplement / serum: 50μMThymidine, base medium: RPMI + dialysed FBS	72.2
log10 compound concentration (M): -6.90849, supplement / serum: No metabolite, base medium: RPMI + dialysed FBS	84.5
log10 compound concentration (M): -6.90849, supplement / serum: RPMI + Dialyzed FBS + 50μM Hypoxanthine, base medium: RPMI-1640	85.8
log10 compound concentration (M): -6.90849, supplement / serum: RPMI + Dialyzed FBS, base medium: RPMI-1640	84.5
log10 compound concentration (M): -6.90849, supplement / serum: RPMI + Normal FBS, base medium: RPMI-1640	76.6
log10 compound concentration (M): -7.38561, supplement / serum: 50μM Hypoxanthine, base medium: RPMI + dialysed FBS	68.9
log10 compound concentration (M): -7.38561, supplement / serum: 50μM Thymidine + 50μM Hypoxanthine, base medium: RPMI + dialysed FBS	79.5
log10 compound concentration (M): -7.38561, supplement / serum: 50μMThymidine, base medium: RPMI + dialysed FBS	65.2
log10 compound concentration (M): -7.38561, supplement / serum: No metabolite, base medium: RPMI + dialysed FBS	66.8
log10 compound concentration (M): -7.38561, supplement / serum: RPMI + Dialyzed FBS + 50μM Hypoxanthine, base medium: RPMI-1640	68.9
log10 compound concentration (M): -7.38561, supplement / serum: RPMI + Dialyzed FBS, base medium: RPMI-1640	66.8
log10 compound concentration (M): -7.38561, supplement / serum: RPMI + Normal FBS, base medium: RPMI-1640	75
log10 compound concentration (M): -7.86273, supplement / serum: 50μM Hypoxanthine, base medium: RPMI + dialysed FBS	83.7
log10 compound concentration (M): -7.86273, supplement / serum: 50μM Thymidine + 50μM Hypoxanthine, base medium: RPMI + dialysed FBS	83.3
log10 compound concentration (M): -7.86273, supplement / serum: 50μMThymidine, base medium: RPMI + dialysed FBS	70.4
log10 compound concentration (M): -7.86273, supplement / serum: No metabolite, base medium: RPMI + dialysed FBS	75.1
log10 compound concentration (M): -7.86273, supplement / serum: RPMI + Dialyzed FBS + 50μM Hypoxanthine, base medium: RPMI-1640	83.7
log10 compound concentration (M): -7.86273, supplement / serum: RPMI + Dialyzed FBS, base medium: RPMI-1640	75.1
log10 compound concentration (M): -7.86273, supplement / serum: RPMI + Normal FBS, base medium: RPMI-1640	73
log10 compound concentration (M): -8.33985, supplement / serum: 50μM Hypoxanthine, base medium: RPMI + dialysed FBS	84.3
log10 compound concentration (M): -8.33985, supplement / serum: 50μM Thymidine + 50μM Hypoxanthine, base medium: RPMI + dialysed FBS	76.1
log10 compound concentration (M): -8.33985, supplement / serum: 50μMThymidine, base medium: RPMI + dialysed FBS	78.4
log10 compound concentration (M): -8.33985, supplement / serum: No metabolite, base medium: RPMI + dialysed FBS	86.2
log10 compound concentration (M): -8.33985, supplement / serum: RPMI + Dialyzed FBS + 50μM Hypoxanthine, base medium: RPMI-1640	84.3
log10 compound concentration (M): -8.33985, supplement / serum: RPMI + Dialyzed FBS, base medium: RPMI-1640	86.2
log10 compound concentration (M): -8.33985, supplement / serum: RPMI + Normal FBS, base medium: RPMI-1640	92
log10 compound concentration (M): -8.81697, supplement / serum: 50μM Hypoxanthine, base medium: RPMI + dialysed FBS	83.9
log10 compound concentration (M): -8.81697, supplement / serum: 50μM Thymidine + 50μM Hypoxanthine, base medium: RPMI + dialysed FBS	69.4
log10 compound concentration (M): -8.81697, supplement / serum: 50μMThymidine, base medium: RPMI + dialysed FBS	77.4
log10 compound concentration (M): -8.81697, supplement / serum: No metabolite, base medium: RPMI + dialysed FBS	70.8
log10 compound concentration (M): -8.81697, supplement / serum: RPMI + Dialyzed FBS + 50μM Hypoxanthine, base medium: RPMI-1640	83.9
log10 compound concentration (M): -8.81697, supplement / serum: RPMI + Dialyzed FBS, base medium: RPMI-1640	70.8
log10 compound concentration (M): -8.81697, supplement / serum: RPMI + Normal FBS, base medium: RPMI-1640	75.5
log10 compound concentration (M): -9.29409, supplement / serum: 50μM Hypoxanthine, base medium: RPMI + dialysed FBS	77.29
log10 compound concentration (M): -9.29409, supplement / serum: 50μM Thymidine + 50μM Hypoxanthine, base medium: RPMI + dialysed FBS	86.3
log10 compound concentration (M): -9.29409, supplement / serum: 50μMThymidine, base medium: RPMI + dialysed FBS	105
log10 compound concentration (M): -9.29409, supplement / serum: No metabolite, base medium: RPMI + dialysed FBS	84.9
log10 compound concentration (M): -9.29409, supplement / serum: RPMI + Dialyzed FBS + 50μM Hypoxanthine, base medium: RPMI-1640	77.29
log10 compound concentration (M): -9.29409, supplement / serum: RPMI + Dialyzed FBS, base medium: RPMI-1640	84.9
log10 compound concentration (M): -9.29409, supplement / serum: RPMI + Normal FBS, base medium: RPMI-1640	77
log10 compound concentration (M): -9.77121, supplement / serum: 50μM Hypoxanthine, base medium: RPMI + dialysed FBS	85.8
log10 compound concentration (M): -9.77121, supplement / serum: 50μM Thymidine + 50μM Hypoxanthine, base medium: RPMI + dialysed FBS	86.4
log10 compound concentration (M): -9.77121, supplement / serum: 50μMThymidine, base medium: RPMI + dialysed FBS	84.3
log10 compound concentration (M): -9.77121, supplement / serum: No metabolite, base medium: RPMI + dialysed FBS	77
log10 compound concentration (M): -9.77121, supplement / serum: RPMI + Dialyzed FBS + 50μM Hypoxanthine, base medium: RPMI-1640	85.8
log10 compound concentration (M): -9.77121, supplement / serum: RPMI + Dialyzed FBS, base medium: RPMI-1640	77
log10 compound concentration (M): -9.77121, supplement / serum: RPMI + Normal FBS, base medium: RPMI-1640	75.8
